In PMC8156053, “Synthesis, Characterization, and In Vitro Insulin-Mimetic Activity Evaluation of Valine Schiff Base Coordination Compounds of Oxidovanadium(V)” (Biomedicines, 2021):
“And” between values parts separate entries of the source, which are not always exact repeats. Identical values can stand only once.

Experiments:
[1] = molecular target: T1, α-Amylase from porcine pancreas (Sus scrofa, UniProt P00690); assay: Inhibition of the α-amylase activity (DNS/starch); format: biochemical; conditions: 1.8 × 10^−2 and 2.0 × 10^−2 M, compared to DMSO
T1 construct: α-Amylase from porcine pancreas, bovine serum albumin (BSA); purchased SIGMA-Aldrich (Merck KGaA, Darmstadt, Germany); host or cells: porcine pancreas
T1 sequence (P00690 16-511): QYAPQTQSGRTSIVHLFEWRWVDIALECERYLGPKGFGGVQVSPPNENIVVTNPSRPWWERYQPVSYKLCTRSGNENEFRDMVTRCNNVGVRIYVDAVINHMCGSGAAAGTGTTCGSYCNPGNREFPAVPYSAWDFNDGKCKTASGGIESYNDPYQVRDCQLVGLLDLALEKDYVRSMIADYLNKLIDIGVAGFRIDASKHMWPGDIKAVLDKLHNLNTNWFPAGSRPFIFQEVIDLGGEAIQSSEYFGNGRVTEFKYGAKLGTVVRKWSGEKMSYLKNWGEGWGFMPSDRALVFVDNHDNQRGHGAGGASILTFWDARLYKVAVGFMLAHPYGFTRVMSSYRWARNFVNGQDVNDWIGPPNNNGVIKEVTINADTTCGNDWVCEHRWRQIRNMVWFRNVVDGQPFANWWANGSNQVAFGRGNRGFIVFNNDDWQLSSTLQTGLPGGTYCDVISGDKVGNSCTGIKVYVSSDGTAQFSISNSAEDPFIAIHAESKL
Procedure: The capacity of the obtained complexes to inhibit pancreatic α-amylase activity in vitro was analyzed using a slightly modified procedure of the one described by Apostolidis and Lee. Thus, 100 µL solution of complexes (1.8 ÷ 2.5 × 10^−2 M), 2.5 × 10^−2 M V^IVOSO4•3H2O, 2.5 × 10^−2 M acarbose (positive control) and 12.5% DMSO (negative control) in reaction buffer (2 × 10^−2 M sodium phosphate, pH 6.9 with 6 × 10^−3 M sodium chloride) were pre-exposed to 100 µL of 20 units/mL α-amylase in reaction buffer for 10 min at room temperature. Then, 100 µL of 1% starch solution in reaction buffer were added and the samples were incubated at room temperature for 10 min. The reaction was stopped with 200 µL of 3, 5-dinitrosalicylic acid (DNS). The samples were heated at 90 ÷ 95 °C for 10 min and then left to cool down at room temperature. The reaction mixture was further diluted with 4 mL of distilled water. As a control for the inhibitory effect of acarbose, a sample containing starch and enzyme was used. The yellow/orange color intensity was measured using the microplate reader TECAN Infinite M200Pro at 540 nm. The experiment was performed in triplicate. The blank (sample without starch and enzyme) absorbance was subtracted from the absorbance of all samples and the activity of α-amylase was expressed as % of DMSO (negative control).

[2] = molecular target: T2, bovine serum albumin (BSA) (Bos taurus, UniProt P02769); assay: Fluorescence quenching of serum albumin (Stern–Volmer); format: binding; conditions: for Stern–Volmer constant KSV: BSA 2 × 10^−6 M, PBS pH 7.4, emission 347 nm; for decrease of BSA fluorescence intensity: highest tested concentration (2.5 × 10^−5 M), 2 × 10^−6 M BSA, PBS pH 7.4, vs free BSA and BSA with DMSO; for collision quenching constant Kq (Kq = Ksv/τ0): τ0 = 10^−8 s
T2 construct: α-Amylase from porcine pancreas, bovine serum albumin (BSA); purchased SIGMA-Aldrich (Merck KGaA, Darmstadt, Germany)
Procedure: The capacity of the oxidovanadium(V) compounds to bind to bovine serum albumin (BSA) was monitored by fluorescence quenching assay. A solution of 2 × 10^−6 M BSA in PBS, pH 7.4, was incubated for 2 h at 37 b0C with each vanadium-based compound or V^IVOSO4•3H2O at increasing molar concentrations (1 × 10^−6 ÷ 2.5 × 10^−5 M) or with 0.025% DMSO (negative control). The samples were excited at 295 nm and the emission spectra of all BSA solutions were recorded in the 300 ÷ 450 nm range using a JASCO FP-750 spectrofluorometer. The final spectrum was the average of three recordings measured at a scanning speed of 250 nm/minute, with an excitation and emission bandwidth of 5 nm. […] In addition, by applying the Stern–Volmer equation [23], the mechanism by which the complexes bind to BSA was investigated as it is described in the Supplementary material.
The Stern–Volmer e quation
The Stern–Vol mer equation [1] is:
I0/I= 1+ Kqτ0[Q] = 1 + Ksv[Q], where: I0 = the fluor escence intensities of fr ee BS A solution at 347 nm, I = the fluorescence intensities of BS A solution at 347 nm in the presence of vanadium […]
[Q] = the concentration of vanadium co mplexes, τ0 = the fluorescence l ifetime of the biopolymer (10-8 s), Kq = the coll isi on quenching constant;
Ksv = the Stern-Volmer constant.
Stern–Vol mer plots of the B SA fluorescence quenching in t he prese nce of each compou nd are represented in Fig. S4, together with the ir linear best fit in which y = I0/I, x = [Q], a = slope of the li ne, […]
The fluorescence intensitie s are the average of three recordings measured at a scanning speed of 250 nm/min, with an excitation and emissio n bandwidth of 5 nm.

[3] = Solution stability over time in PBS by UV-Vis spectrophotometry; format: physicochemical; conditions: for decrease in the intensity of λmax: 2 × 10^−4 M in PBS pH 7.4, 37 °C; for stability in PBS: physiological pH (7.4), 37 °C
Procedure: Electronic absorption spectra for the 2 × 10^−4 M solution of the four oxidovanadium(V) complexes in PBS at pH 7.4 were recorded outright on the prepared solutions (designated as T 0 h in the histograms), after the preparation at 1 h (T 1 h), 3 h (T 3 h), 6 h (T 6 h), 9 h (T 9 h), and 24 h (T 24 h), respectively. The prepared solutions were incubated at 37 °C, and the readings were performed over the entire 500 ÷ 230 nm range using a microplate reader spectrophotometer TECAN Infinite M200Pro and a 96-well UV micro test plate. The data were expressed as the average ± SD of three independent measurements.

[4] = test system: HepG2 cells; assay: Cytotoxicity, XTT cell viability assay; format: cell-based, human; conditions: 24 h
Procedure: HepG2 cell line was purchased from American Type Culture Collection. The cells were grown in Dulbecco’s Modified Eagle’s Medium (DMEM) with 4.5‰ glucose, supplemented with 10% (v/v) fetal bovine serum, 100 units/mL penicillin, and 100 µg/mL streptomycin (complete medium). HepG2 cells were maintained at 37 °C in a 5% carbon dioxide incubator and were periodically sub-cultivated.
To determine the cytotoxic concentration of the synthesized oxidovanadium(V) complexes and V^IVOSO4•3H2O, HepG2 cells were incubated with increasing molar concentrations (1 × 10^−5 ÷ 3 × 10^−4 M) of compounds.
HepG2 cells (1.5 × 10^4 cells/mL) were seeded in complete medium on a 96-well cell culture plate and were incubated at 37 b0C, as previously described. […] Control cells were represented by cells exposed to free-complete medium and medium supplemented with 0.15% DMSO. The cytotoxicity of tested compounds on the HepG2 cell line was assessed by the 2, 3-bis-(2-methoxy-4-nitro-5-sulfophenyl)-2H-tetrazolium-5-carboxanilide) (XTT) cell viability assay. The method is based on the reduction of XTT, in the presence of phenazine methosulfate, to a water-soluble orange formazan derivative. The absorbance of the sample, due to the intensity of the orange color, which is proportional to the number of viable cells, was recorded at 450 nm using the Tecan Infinite M200Pro spectrophotometer.

[5] = test system: insulin receptor (INS R); assay: Quantification of phosphorylated insulin receptor by immunoblotting in HepG2 cells; format: cell-based, human; conditions: 10^−7 M insulin
Procedure: To investigate the effect of oxidovanadium(V) complexes on insulin receptor (INS R) phosphorylation, HepG2 cells (1.0 × 10^5 cells/mL) were treated with 2.5 × 10^−5 M oxidovanadium(V) compounds, V^IVOSO4•3H2O, and 10^−7 M insulin (positive control) for 3 and 24 h, respectively. As negative controls, cells exposed to free-complete medium (negative control for treatment with V^IVOSO4•3H2O and insulin) and cells exposed to 0.0125% DMSO (negative control for treatment with complexes) were used.
After cell lysis, 50 µg of total protein was denatured by adding 1/5th volume of Laemmli’s buffer 6× (15% SDS, 0.01% bromophenol blue, 74% glycerol, 7.5 × 10^−2 M Tris, pH 6.8, 1/8th volume of 2-mercaptoethanol) followed by heating at 95 °C for 5 min. […]
The separated proteins were transferred (using a Trans-Blot Semi-Dry transfer cell, Bio-Rad) to a nitrocellulose membrane (0.45 µm, Bio-Rad), blocked with 1% BSA for 1 hour, and incubated overnight with the primary antibody: Mouse anti-insulin receptor-β chain (INS R-β) (1:500, Santa Cruz Biotechnology cat. No. sc-57342), rabbit anti-phosphorylated INS R-Y1162/3 (pINS R, 1:400, R&D Systems, Minneapolis, MN, USA cat. No. AF2507) and mouse anti-β-actin (1/2000, Bio-Rad cat. no. MCA5775GA). […] The data were expressed as the mean ± SD of two individual experiments performed in duplicate.

[6] = ratio of BSA quenching constants

T2 sequence (P02769 25-607): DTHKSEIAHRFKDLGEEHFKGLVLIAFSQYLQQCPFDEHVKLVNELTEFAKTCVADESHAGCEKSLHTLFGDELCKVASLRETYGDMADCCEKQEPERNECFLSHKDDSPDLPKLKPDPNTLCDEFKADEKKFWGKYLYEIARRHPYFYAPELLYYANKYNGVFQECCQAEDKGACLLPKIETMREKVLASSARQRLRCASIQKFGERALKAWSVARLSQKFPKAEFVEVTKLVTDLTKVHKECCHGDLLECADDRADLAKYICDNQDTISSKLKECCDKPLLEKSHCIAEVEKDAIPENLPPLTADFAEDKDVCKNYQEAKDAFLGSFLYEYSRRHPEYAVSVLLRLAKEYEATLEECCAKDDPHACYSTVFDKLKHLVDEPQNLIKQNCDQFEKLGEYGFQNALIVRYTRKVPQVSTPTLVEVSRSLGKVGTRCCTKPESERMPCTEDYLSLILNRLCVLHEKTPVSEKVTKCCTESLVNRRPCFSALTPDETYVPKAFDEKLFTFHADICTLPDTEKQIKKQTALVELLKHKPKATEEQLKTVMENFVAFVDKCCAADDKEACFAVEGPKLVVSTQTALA

Compound | inhibitory effect on α-amylase activity [1] | Stern–Volmer constant KSV [2] [M⁻¹] | decrease of BSA fluorescence intensity [2] | Kq(1a)/Kq(1b) [2, 6] | collision quenching constant Kq (Kq = Ksv/τ0) [2] [M⁻¹ s⁻¹] | decrease in the intensity of λmax ([3]; 1 h vs T 0 h) | decrease in the intensity of λmax ([3]; 3 h vs T 0 h) | decrease in the intensity of λmax ([3]; 6 h vs T 0 h) | decrease in the intensity of λmax ([3]; 9 h vs T 0 h) | decrease in the intensity of λmax ([3]; 24 h vs T 0 h) | stability in PBS [3] | increase of α-amylase enzyme activity [1] [%] | Kq(2a)/Kq(1a) [2, 6] | Kq(2a)/Kq(2b) [2, 6] | Kq(2b)/Kq(1b) [2, 6] | reduction of HepG2 viability ([4]; highest concentration (3 × 10^−4 M), compared to control cells) [%] | reduction of HepG2 viability ([4]; 1 × 10^−5 M, compared to DMSO treated cells) [%] | increase of INS R phosphorylation ([5]; 3 h, HepG2, compared to cells exposed to free-complete medium) | INS R phosphorylation ([5]; 24 h, HepG2, compared to control cells)
CC(C)[C@H]1N=Cc2ccccc2[O][V](=[O])([O][V]2(=[O])[O]C(=O)[C@@H](C(C)C)N=Cc3ccccc3[O]2)[O]C1=O.O (stereo partly shown) [1a, [{V^VO(R-salval)(H2O)}(μ2-O){V^VO(R-salval)}]] | more than 18% | 80700 | about 60% | 1.34 | 8.07e+12 | about 10% | about 25% | about 40% | about 50% | about 70% | stable in PBS at physiological pH and temperature for up to three hours |  |  |  |  |  |  |  | 
CC(C)[C@H](N=Cc1ccccc1[O-])C(=O)[O-].CC(C)[C@H](N=Cc1ccccc1[O-])C(=O)[O-].O.[O]=[V+2][O][V+2]=[O] [1b, [{V^VO(S-salval)(H2O)}(μ2-O){V^VO(S-salval)}]] | more than 18% | 60100 | about 60% |  | 6.01e+12 | about 10% | about 25% | about 40% | about 50% | about 70% | stable in PBS at physiological pH and temperature for up to three hours |  |  |  |  |  |  |  | 
CO.CO.COc1cccc2c1[O][V](=[O])([O][V]1(=[O])[O]C(=O)[C@@H](C(C)C)N=Cc3cccc(OC)c3[O]1)[O]C(=O)[C@@H](C(C)C)N=C2 (stereo partly shown) [2a, [{V^VO(R-vanval)(CH3OH)}2(μ2-O)]] |  | 171800 | ~80% |  | 1.718e+13 | less than 10% | less than 20% | ~20% | ~30% | ~30% | stable in PBS at physiological pH and temperature for up to three hours | 35 | 2 and 2.12 | 0.69 |  |  |  |  | 
CO.CO.COc1cccc(C=N[C@H](C(=O)[O-])C(C)C)c1[O-].COc1cccc(C=N[C@H](C(=O)[O-])C(C)C)c1[O-].[O]=[V+2][O][V+2]=[O] [2b, [{V^VO(S-vanval)(CH3OH)}2(μ2-O)]] |  | 248900 | ~80% |  | 2.489e+13 | less than 10% | less than 20% | ~20% | ~30% | ~30% | stable in PBS at physiological pH and temperature for up to three hours | 35 |  |  | 4 and 4.14 |  |  |  | 
O.O.O.O=S(=O)([O-])[O-].[O]=[V+2] [V^IVOSO4•3H2O, reference compound] |  |  | does not reduce the fluorescence intensity of BSA |  |  |  |  |  |  |  |  |  |  |  |  | 34 |  |  | 
N.N.[Cl][Pt][Cl] [cisplatin] |  |  |  |  |  |  |  |  |  |  |  |  |  |  |  |  | 44 |  | 
insulin: human recombinant insulin, positive control for INS R phosphorylation |  |  |  |  |  |  |  |  |  |  |  |  |  |  |  |  |  | about 80% | reduced and insignificant
